Test results taken from PubChem BioAssay AID1745844 (Carcinogenic Potency Database (CPDB), 2022).
Values joined by “and” are separate entries in the source; they are usually repeats but may differ in a detail not shown here. Identical values can stand only once. Active and inactive are the calls of the source. The rule behind the calls is not given here.

Test system: rodent lifetime carcinogenesis bioassay, tumor incidence TD50
Assay: carcinogenic potency in animals, long-term in vivo studies, CPDB compilation (AID 1745844)
Conditions: for carcinogen call: dosed 149 weeks, study length 149 weeks

S=P(N1CC1)(N1CC1)N1CC1
TD50 (mouse, strain B6C3F1, females, i.p., site: all sites, lesion: lymphocytic leukemia + lymphoma, dosed 47 weeks, study length 86 weeks): 0.216 mg/kg/day and 0.21 mg/kg/day
TD50 (mouse, strain B6C3F1, females, i.p., site: any site (literature study), lesion: several types, types named in the paper, dosed 47 weeks, study length 86 weeks): 0.0855 mg/kg/day
TD50 (mouse, strain B6C3F1, females, i.p., site: liver, lesion: hepatocellular adenoma + hepatocellular carcinoma + neoplastic nodule, dosed 47 weeks, study length 86 weeks): 1.12 mg/kg/day
TD50 (mouse, strain B6C3F1, females, i.p., site: lung, lesion: alveolar/bronchiolar adenoma + alveolar/bronchiolar carcinoma, dosed 47 weeks, study length 86 weeks): 0.408 mg/kg/day
TD50 (mouse, strain B6C3F1, females, i.p., site: lung, lesion: alveolar/bronchiolar adenoma, dosed 47 weeks, study length 86 weeks): 0.408 mg/kg/day
TD50 (mouse, strain B6C3F1, males, i.p., site: all sites, lesion: leukemia + lymphocytic leukemia + lymphoma, dosed 52 weeks, study length 83 weeks): 0.241 mg/kg/day
TD50 (mouse, strain B6C3F1, males, i.p., site: all sites, lesion: leukemia + lymphoma, dosed 52 weeks, study length 83 weeks): 0.241 mg/kg/day and 0.238 mg/kg/day
TD50 (mouse, strain B6C3F1, males, i.p., site: all sites, lesion: lymphocytic leukemia + lymphoma, dosed 52 weeks, study length 83 weeks): 0.265 mg/kg/day and 0.262 mg/kg/day
TD50 (mouse, strain B6C3F1, males, i.p., site: all sites, lesion: squamous-cell carcinoma, dosed 52 weeks, study length 83 weeks): 0.102 mg/kg/day
TD50 (mouse, strain B6C3F1, males, i.p., site: any site (literature study), lesion: several types, types named in the paper, dosed 52 weeks, study length 83 weeks): 0.069 mg/kg/day
TD50 (mouse, strain B6C3F1, males, i.p., site: liver, lesion: hepatocellular adenoma + hepatocellular carcinoma + neoplastic nodule, dosed 52 weeks, study length 83 weeks): 1.12 mg/kg/day
TD50 (mouse, strain B6C3F1, males, i.p., site: lung, lesion: alveolar/bronchiolar adenoma + alveolar/bronchiolar carcinoma, dosed 52 weeks, study length 83 weeks): 0.584 mg/kg/day
TD50 (mouse, strain B6C3F1, males, i.p., site: preputial gland, lesion: squamous-cell carcinoma, dosed 52 weeks, study length 83 weeks): 0.3 mg/kg/day
TD50 (mouse, strain B6C3F1, males, i.p., site: skin, lesion: squamous-cell carcinoma, dosed 52 weeks, study length 83 weeks): 0.28 mg/kg/day
TD50 (rat, strain BR 46, males, i.v., site: any site (literature study), lesion: benign tumor, dosed 52 weeks, study length 104 weeks): 0.646 mg/kg/day
TD50 (rat, strain BR 46, males, i.v., site: any site (literature study), lesion: malignant tumor, dosed 52 weeks, study length 104 weeks): 0.303 mg/kg/day
TD50 (rat, strain BR 46, males, i.v., site: any site (literature study), lesion: several types, types named in the paper, dosed 52 weeks, study length 104 weeks): 0.186 mg/kg/day
TD50 (rat, strain Sprague-Dawley, females, i.p., site: any site (literature study), lesion: several types, types named in the paper, dosed 36 weeks, study length 81 weeks): 0.0404 mg/kg/day
TD50 (rat, strain Sprague-Dawley, females, i.p., site: brain + nasal cavity, lesion: olfactory neuroblastoma + carcinoma, NOS, dosed 36 weeks, study length 81 weeks): 0.819 mg/kg/day
TD50 (rat, strain Sprague-Dawley, females, i.p., site: ear canal + skin, lesion: squamous-cell carcinoma, dosed 36 weeks, study length 79 weeks): 0.214 mg/kg/day
TD50 (rat, strain Sprague-Dawley, females, i.p., site: ear canal + skin, lesion: squamous-cell carcinoma, dosed 36 weeks, study length 81 weeks): 0.217 mg/kg/day
TD50 (rat, strain Sprague-Dawley, females, i.p., site: ear canal, lesion: squamous-cell carcinoma, dosed 36 weeks, study length 79 weeks): 0.327 mg/kg/day
TD50 (rat, strain Sprague-Dawley, females, i.p., site: mammary gland, lesion: adenocarcinoma, NOS, dosed 36 weeks, study length 79 weeks): 0.182 mg/kg/day
TD50 (rat, strain Sprague-Dawley, females, i.p., site: uterus, lesion: adenocarcinoma, NOS, dosed 36 weeks, study length 79 weeks): 0.236 mg/kg/day
TD50 (rat, strain Sprague-Dawley, females, i.p., site: uterus, lesion: adenocarcinoma, NOS, dosed 36 weeks, study length 81 weeks): 0.243 mg/kg/day
TD50 (rat, strain Sprague-Dawley, males, i.p., site: all sites, lesion: leukemia + lymphoma, dosed 32 weeks, study length 79 weeks): 0.224 mg/kg/day
TD50 (rat, strain Sprague-Dawley, males, i.p., site: all sites, lesion: leukemia, dosed 32 weeks, study length 79 weeks): 0.29 mg/kg/day
TD50 (rat, strain Sprague-Dawley, males, i.p., site: all sites, lesion: leukemia, dosed 32 weeks, study length 82 weeks): 0.312 mg/kg/day
TD50 (rat, strain Sprague-Dawley, males, i.p., site: all sites, lesion: lymphocytic leukemia, dosed 32 weeks, study length 79 weeks): 0.374 mg/kg/day
TD50 (rat, strain Sprague-Dawley, males, i.p., site: any site (literature study), lesion: several types, types named in the paper, dosed 32 weeks, study length 82 weeks): 0.0332 mg/kg/day
TD50 (rat, strain Sprague-Dawley, males, i.p., site: brain + nasal cavity, lesion: neuroblastoma + olfactory neuroblastoma + carcinoma, NOS, dosed 32 weeks, study length 82 weeks): 0.285 mg/kg/day
TD50 (rat, strain Sprague-Dawley, males, i.p., site: ear canal + skin, lesion: squamous-cell carcinoma, dosed 32 weeks, study length 79 weeks): 0.122 mg/kg/day
TD50 (rat, strain Sprague-Dawley, males, i.p., site: skin, lesion: squamous-cell carcinoma, dosed 32 weeks, study length 79 weeks): 0.155 mg/kg/day
TD50 (rat, strain Sprague-Dawley, males, i.p., site: subcutaneous tissue, lesion: sarcoma, NOS, dosed 32 weeks, study length 79 weeks): 0.22 mg/kg/day

[O]=[W](=[O])([OH])[OH]
carcinogen call (rat, strain Long-Evans BLU:(LE), females, in drinking water, site: any site (literature study), lesion: malignant tumor): negative (inactive)
carcinogen call (rat, strain Long-Evans BLU:(LE), females, in drinking water, site: any site (literature study), lesion: several types, types named in the paper): negative (inactive)
TD50 (rat, strain Long-Evans BLU:(LE), males, in drinking water, site: any site (literature study), lesion: malignant tumor, dosed 136 weeks, study length 136 weeks): 87.7 mg/kg/day (inactive)
TD50 (rat, strain Long-Evans BLU:(LE), males, in drinking water, site: any site (literature study), lesion: several types, types named in the paper, dosed 136 weeks, study length 136 weeks): 40.1 mg/kg/day (inactive)
